This assay concerns R223X stop codon in the mutated luciferase gene, ADXC8 luciferase reporter cell line. Briefly: cells. The format is cell-based. The following applies: ADXC8 cells, 24 hours; for Emax / EC (100% of 200 uM G418 response): 24 h; for Emax: read-out: Fold Over Control, maximum fold response relative to 200 μM G418; for EC (100% of 200 uM G418 response): read-out: pC100%, negative logarithm of the concentration giving the same response as 200 μM G418; for pC100%: negative logarithm of the concentration giving the same response as 200 μM G418.

Where only a bound is given, the exact number is not on record here.

Take `CN1CCC(Nc2nc(N)c3ccc(-c4cccc(N(C)C)c4)nc3n2)CC1` [Example 52]: the Emax lay within 100 to 3000% and the EC (100% of 200 uM G418 response) is 1 to 10 µM.
On the same counts, the results for `Cc1cc(C)c2c(N)nc(N[C@@H]3CNC[C@H]3F)nc2n1` [Example 297] are 100 to 3000% and 10 to 100 µM.
As for `Cc1cc(C)c2c(NCc3ccncc3)nc(NC3CCN(C)CC3)nc2n1` [Example 319], the Emax lay in the range of 0 to 100% and the EC (100% of 200 uM G418 response) was more than 31.6 µM.
On to `Cc1cc(C)c2c(N)nc(NCCCN3CCOCC3)nc2n1` [Example 6, 5,7-dimethyl-N^2-(3-morpholinopropyl)pyrido[2,3-d]pyrimidine-2,4-diamine], for which the Emax lay within 100 to 3000% and the EC (100% of 200 uM G418 response) was in the range of 10 to 100 µM.
On the same counts, the results for `Cc1cc(C)c2c(N)nc(N[C@@H]3CCN(CCO)C3)nc2n1` [Example 224, (R)-2-(3-((4-amino-5,7-dimethylpyrido[2,3-d]pyrimidin-2-yl)amino)pyrrolidin-1-yl)ethan-1-ol] are 100 to 3000% and 10 to 100 µM.
As to `Cc1cc(C)c2c(N)nc(NC3C[C@H]4CC[C@@H](C3)N4C)nc2n1` (stereo partly shown) [Example 218], the Emax is 100 to 3000% and the EC (100% of 200 uM G418 response) fell in the range of 1 to 10 µM.
As for `Cc1nc2nc(NC3CCN(Cc4ccc(C#N)cc4O)CC3)nc(N)c2c2c1CCC2` [Example 534], the Emax was in the range of 100 to 3000% and the EC (100% of 200 uM G418 response) is 0.1 to 1 µM.
In the same order, the values of `Cc1cc(C)c2c(N)nc(NCC3CCNCC3)nc2n1` [Example 141, 5,7-dimethyl-N^2-(piperidin-4-ylmethyl)pyrido[2,3-d]pyrimidine-2,4-diamine] are 100 to 3000% and 10 to 100 µM.
In the case of `Cc1cc(C)c2c(N)nc(NC3CCN(Cc4cccc(C(F)F)c4)CC3)nc2n1` [Example 489], the Emax lay within 100 to 3000% and the EC (100% of 200 uM G418 response) lay within 1 to 10 µM.
On to `CCNc1nc(N[C@H]2CNC[C@@H]2O)nc2nc(C)cc(C)c12` [Example 392], for which the EC (100% of 200 uM G418 response) lay in the range of 1 to 10 µM.
On to `Cc1cc(C)c2c(N)nc(NCCCN(C)c3ccccc3)nc2n1` [Example 147], for which the Emax lay within 0 to 100% and the EC (100% of 200 uM G418 response) was more than 31.6 µM.
On to `CN1CCC(Nc2nc(N)c3ccc(-c4ccccc4F)nc3n2)CC1` [Example 88], for which the EC (100% of 200 uM G418 response) was 1 to 10 µM.
Still for that read-out and setting: the value for `Cc1cc(C)c2c(N)nc(N[C@H]3CCNC[C@@H]3F)nc2n1` [Example 590] was 1 to 10 µM.
On to `Cc1cc(C)c2c(N)nc(NC3CCN(Cc4c(C)cccc4C)CC3)nc2n1` [Example 468], for which the Emax was in the range of 100 to 3000% and the EC (100% of 200 uM G418 response) lay within 1 to 10 µM.
For `CNc1nc(NC2C3CCC2CN(C(C)C)C3)nc2nc(C)cc(C)c12` (single isomer, unassigned) [Example 435], the Emax fell in the range of 100 to 3000% and the pC100% entry is “++ (pC100% > 5.0 ≤ 6.0)”.
With `Cc1cc(C)c2c(N)nc(N[C@H]3CCN(Cc4ccc(C#N)cc4)C[C@@H]3F)nc2n1` [Example 574], the Emax is 100 to 3000% and the EC (100% of 200 uM G418 response) lay within 10 to 100 µM.
On the same counts, the results for `CN1CCC(Nc2nc(N)c3cc(-c4cncn4C)cnc3n2)CC1` [Example 643] are 0 to 100% and more than 100 µM.
In the same order, the values of `CN1CCC(Nc2nc(N)c3ccc(N(C)C)nc3n2)CC1` [Example 36, N^7,N^7-dimethyl-N^2-(1-methylpiperidin-4-yl)pyrido[2,3-d]pyrimidine-2,4,7-triamine] are 100 to 3000% and 10 to 100 µM.
In the same order, the values of `CN1CCC(Nc2nc(N)c3c(n2)nc(-c2ccccc2)c2ccccc23)CC1` [Example 31, N^3-(1-methylpiperidin-4-yl)-6-phenylpyrimido[4,5-c]isoquinoline-1,3-diamine] are 100 to 3000% and 1 to 10 µM.
As to `CNCCNc1nc(N)c2c(C)cc(C)nc2n1` [Example 285], the EC (100% of 200 uM G418 response) was 1 to 10 µM.
Take `Cc1cc(C)c2c(N)nc(NC3CCN(Cc4cccnc4)CC3)nc2n1` [Example 504]: the Emax was 100 to 3000% and the EC (100% of 200 uM G418 response) was in the range of 1 to 10 µM.
On the same counts, the results for `COC(C)c1cnc2nc(NC3CCN(C)CC3)nc(N)c2c1` (stereo not shown) [Example 284] are 0 to 100% and more than 31.6 µM.
In the same order, the values of `Cc1c2c(nc3nc(N[C@H]4CNC[C@@H]4O)nc(N)c13)CCC2` [Example 582] are 100 to 3000% and 0.01 to 0.1 µM.
Take `Cc1cc(C)c2c(N)nc(NCC3(N(C)C)CCOCC3)nc2n1` [Example 156]: the EC (100% of 200 uM G418 response) lay in the range of 1 to 10 µM.
For `CNc1nc(NC2CC3CCC2N3)nc2nc(C)cc(C)c12` (stereo not shown) [Example 517, N^2-(-7-azabicyclo[2.2.1]heptan-2-yl)-N^4,5,7-trimethylpyrido[2,3-d]pyrimidine-2,4-diamine], the Emax fell in the range of 100 to 3000% and the pC100% result was “++ (pC100% > 5.0 ≤ 6.0)”.
In the case of `Cc1cc(C)c2c(N)nc(NC3CCN(Cc4cccc(CO)c4)CC3)nc2n1` [Example 482], the Emax was in the range of 100 to 3000% and the EC (100% of 200 uM G418 response) was 10 to 100 µM.
On the same counts, the results for `COCc1cccc(CN2CCC(Nc3nc(N)c4c(C)cc(C)nc4n3)CC2)c1` [Example 464] are 100 to 3000% and 10 to 100 µM.
On the same counts, the results for `CN1CCC(Nc2nc(N)c3ccc(-c4ccc(N)cc4)nc3n2)CC1` [Example 68] are 100 to 3000% and 10 to 100 µM.
For the molecule `Cc1cc(C)c2c(N)nc(NC3CCN(Cc4nnc[nH]4)CC3)nc2n1` [Example 483], the Emax fell in the range of 0 to 100% and the EC (100% of 200 uM G418 response) is more than 31.6 µM.
In the same order, the values of `Cc1cc(C)c2c(N3CCOCC3)nc(NC3CCN(C)CC3)nc2n1` [Example 266] are 0 to 100% and more than 100 µM.
In the same order, the values of `CNc1nc(NC2CCN3CCCC23)nc2nc(C)cc(C)c12` (stereo not shown) [Example 439] are 0 to 100% and more than 31.6 µM.
In the same order, the values of `CCNc1nc(N[C@H]2CN(C)C[C@@H]2F)nc2nc(C)cc(C)c12` [Example 393] are 100 to 3000% and 1 to 10 µM.
Take `CN1CCC(Nc2nc(N)c3ccc(C#N)nc3n2)CC1` [Example 282]: the Emax fell in the range of 0 to 100% and the EC (100% of 200 uM G418 response) is more than 31.6 µM.
On the same counts, the results for `Cc1cc(C)c2c(N)nc(NC3CCN(Cc4ccncc4O)CC3)nc2n1` [Example 564] are 100 to 3000% and 1 to 10 µM.
On the same counts, the results for `Cc1cc(C)c2c(N)nc(NC3CCN(C4CC4)CC3)nc2n1` [Example 146] are 100 to 3000% and 1 to 10 µM.
On the same counts, the results for `CCCNc1nc(N[C@@H]2CCN(C)C2)nc2nc(C)cc(C)c12` [Example 390] are 100 to 3000% and 1 to 10 µM.
`CN1CCC(Nc2nc(N)c3cc(C(=O)O)cnc3n2)CC1` [Example 287]: the Emax is 0 to 100% and the EC (100% of 200 uM G418 response) is more than 100 µM.
As to `Cc1cc(C)c2c(N)cc(N[C@@H]3CCNC3)nc2n1` [Example 255, (R)-5,7-dimethyl-N^2-(pyrrolidin-3-yl)-1,8-naphthyridine-2,4-diamine], the EC (100% of 200 uM G418 response) is 0.1 to 1 µM.
With `Cc1cc(C)c2c(N)nc(NC3CCN(Cc4c[nH]cn4)CC3)nc2n1` [Example 491], the Emax was in the range of 100 to 3000% and the EC (100% of 200 uM G418 response) was in the range of 10 to 100 µM.
On the same counts, the results for `Cc1cc(C)c2c(N)nc(NC3CCNCC3(C)C)nc2n1` (stereo not shown) [Example 212] are 100 to 3000% and 1 to 10 µM.
In the same order, the values of `Cc1cc(C)c2c(NC3CCC3)nc(N[C@@H]3CCNC3)nc2n1` [Example 333] are 0 to 100% and more than 31.6 µM.
On the same counts, the results for `Cc1cc(C)c2c(N)nc(N[C@@H]3CN[C@H](C)C3)nc2n1` [Example 348] are 100 to 3000% and 10 to 100 µM.
For the molecule `CN1CCC(Nc2nc(N)c3ccc(-c4ccc(F)cc4F)nc3n2)CC1` [Example 85], the EC (100% of 200 uM G418 response) lay within 1 to 10 µM.
As to `Cc1c2c(nc3nc(NC4CCN(Cc5ccc(S(N)(=O)=O)cc5)CC4)nc(N)c13)CCC2` [Example 667], the Emax was 100 to 3000% and the EC (100% of 200 uM G418 response) was 1 to 10 µM.
In the same order, the values of `CN1CCC(Nc2nc(N)c3ccc(-c4ccnnc4)nc3n2)CC1` [Example 61] are 0 to 100% and more than 100 µM.
Take `CN1CCC(Nc2nc(N)c3ccc(-c4cccc(C#N)c4)nc3n2)CC1` [Example 112]: the EC (100% of 200 uM G418 response) lay in the range of 1 to 10 µM.
Regarding `CNc1ccc2c(N)nc(NC3CCN(C)CC3)nc2n1` [Example 34, N^7-methyl-N2-(1-methylpiperidin-4-yl)pyrido[2,3-d]pyrimidine-2,4,7-triamine], the Emax is 100 to 3000% and the EC (100% of 200 uM G418 response) was in the range of 10 to 100 µM.
On the same counts, the results for `COCCNc1nc(NC2CCN(C)CC2)nc2nc(C)cc(C)c12` [Example 269] are 100 to 3000% and 1 to 10 µM.
Turning to `CNc1nc(N[C@H]2CN(C)C[C@H]2F)nc2nc(C)c(Cl)c(C)c12` [Example 614], the EC (100% of 200 uM G418 response) lay within 1 to 10 µM.
For `CNc1nc(N[C@H]2C[C@@H](C)N(C)C2)nc2nc(C)cc(C)c12` [Example 371], the Emax lay within 100 to 3000% and the EC (100% of 200 uM G418 response) was 10 to 100 µM.
On the same counts, the results for `Cc1cc(C)c2c(N)nc(NC3CCN(Cc4cccc(C)c4O)CC3)nc2n1` [Example 539] are 100 to 3000% and 0.1 to 1 µM.
On the same counts, the results for `Cc1nc2nc(NC3CCN(Cc4ccncc4O)CC3)nc(N)c2c2c1CCC2` [Example 530] are 100 to 3000% and 0.1 to 1 µM.
In the same order, the values of `CN1CCC(Nc2nc(N)c3ccc(Oc4ccccc4)nc3n2)CC1` [Example 32, N^2-(1-methylpiperidin-4-yl)-7-phenoxypyrido[2,3-d]pyrimidine-2,4-diamine] are 100 to 3000% and 10 to 100 µM.
